# Test system: tissue noradrenaline and dopamine content
# Test: Tissue catecholamines in beagle dogs dosed b.i.d. for 4.5 days (0.05-5 mg/kg)
# Type: in vivo
# Description: Male beagle dogs (10-16 kg, Marshall Farms USA Inc, North Rose, N.Y., USA) were used in the study. On the day of the study, dogs were weighed and randomly assigned to be orally dosed with either empty capsules (control) or the appropriate dose of nepicastat (0.05, 0.5, 1.5 or 5 mg.kg^−1; po, b.i.d.) […]. At six hours following the first dose on day-5, the dogs were euthanized with pentobarbital and the tissues (cerebral cortex, renal artery, left ventricle) were rapidly harvested. The tissues were subsequently processed and analysed for noradrenaline and dopamine as described above.
# Male beagle dogs (10-16 kg, Marshall Farms USA Inc, North Rose, N.Y.) were used in the study. On the day of the study, dogs were randomly assigned to receive either placebo (empty capsule) or the appropriate dose of 2a. Each dog was dosed twice a day for 4.5 days. 6 h after the first dose on day 5, the dogs were euthanized with pentobarbital and the tissues (cerebral cortex. renal artery, left ventricle) harvested, weighed, placed in iced 0.4 M perchloric acid, frozen in liquid nitrogen and stored at −70° C. until analysis. Tissue NE and DA concentrations were assayed by HPLC using electrochemical detection.
compound,measurement,setting,value
"Cl.NCc1c[nH]c(=S)n1[C@H]1CCc2c(F)cc(F)cc2C1 [nepicastat, (S)-5-Aminomethyl-1-(5,7-difluoro-1,2,3,4-tetrahydronaphth-2-yl)-2,3-dihydro-2-thioxo-1H-imidazole hydrochloride]","maximal increase in DA/NE ratio, artery (renal)",5 mg/kg,95 fold
same,"maximal increase in DA/NE ratio, cerebral cortex",5 mg/kg,80 fold
same,"maximal increase in DA/NE ratio, left ventricle",5 mg/kg,151 fold
same,"decrease in noradrenaline, cerebral cortex",5 mg/kg b.i.d. po,96%
same,"decrease in noradrenaline, left ventricle",5 mg/kg b.i.d. po,91%
same,"decrease in noradrenaline, renal artery",5 mg/kg b.i.d. po,88%
same,"increase in dopamine, cerebral cortex",5 mg/kg b.i.d. po,166%
same,"increase in dopamine, left ventricle",5 mg/kg b.i.d. po,700%
same,"increase in dopamine, renal artery",5 mg/kg b.i.d. po,627%
same,doses at which catecholamine changes attained statistical significance (p<0.05),"renal artery, left ventricle, cerebral cortex",> 0.1 mg/kg/day

# Reference: patent US20090054403A1, “Treatment of Post-Traumatic Stress Disorder” (priority 2007, published 2009)
